This note sets out measurements from patent US9056874B2, “Complement pathway modulators and uses thereof” (NOVARTIS AG, priority 2012, dated 2015).

For assay [1], the target named is T1, factor B (Homo sapiens, UniProt P00751). Description: assay of Biological Example 2.7. Format: binding. Also noted: made in house; host or cells: drosophila cells. The following applies: assay of Biological Example 2.7 (Table 2).
Target sequence in this assay (P00751 26-764): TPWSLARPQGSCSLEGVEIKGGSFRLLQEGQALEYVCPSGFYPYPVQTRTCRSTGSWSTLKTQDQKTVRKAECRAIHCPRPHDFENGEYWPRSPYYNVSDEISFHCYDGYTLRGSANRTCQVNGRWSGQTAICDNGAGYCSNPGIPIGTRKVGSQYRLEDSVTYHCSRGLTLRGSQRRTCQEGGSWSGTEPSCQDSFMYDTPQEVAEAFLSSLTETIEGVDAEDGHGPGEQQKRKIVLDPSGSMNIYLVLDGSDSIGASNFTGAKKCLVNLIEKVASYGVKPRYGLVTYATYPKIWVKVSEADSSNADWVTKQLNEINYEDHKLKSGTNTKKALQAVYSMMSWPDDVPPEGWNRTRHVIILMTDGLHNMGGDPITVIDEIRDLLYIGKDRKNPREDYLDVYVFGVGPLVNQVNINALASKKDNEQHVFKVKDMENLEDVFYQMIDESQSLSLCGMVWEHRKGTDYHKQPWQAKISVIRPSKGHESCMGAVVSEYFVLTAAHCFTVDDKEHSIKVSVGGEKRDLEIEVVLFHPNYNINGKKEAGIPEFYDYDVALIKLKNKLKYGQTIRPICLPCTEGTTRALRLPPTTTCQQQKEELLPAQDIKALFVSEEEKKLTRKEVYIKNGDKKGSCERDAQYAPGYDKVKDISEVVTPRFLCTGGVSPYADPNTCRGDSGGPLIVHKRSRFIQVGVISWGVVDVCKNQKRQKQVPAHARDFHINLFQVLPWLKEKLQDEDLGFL
In assay [2] the target is T1, factor B. Kind of assay: factor B inhibition assay of Biological Example 1. In kind it is biochemical. The arrangement: CVF-Bb complex prepared from purified cobra venom factor (1 μM), recombinant human complement factor B; made in house; host or cells: drosophila cells (factor B); E. coli (factor D used to form the complex). The settings on record: IC50 (nM), assay of Biological Example 1 (Table 1).
Target sequence in this assay (P00751 260-764 limits assumed): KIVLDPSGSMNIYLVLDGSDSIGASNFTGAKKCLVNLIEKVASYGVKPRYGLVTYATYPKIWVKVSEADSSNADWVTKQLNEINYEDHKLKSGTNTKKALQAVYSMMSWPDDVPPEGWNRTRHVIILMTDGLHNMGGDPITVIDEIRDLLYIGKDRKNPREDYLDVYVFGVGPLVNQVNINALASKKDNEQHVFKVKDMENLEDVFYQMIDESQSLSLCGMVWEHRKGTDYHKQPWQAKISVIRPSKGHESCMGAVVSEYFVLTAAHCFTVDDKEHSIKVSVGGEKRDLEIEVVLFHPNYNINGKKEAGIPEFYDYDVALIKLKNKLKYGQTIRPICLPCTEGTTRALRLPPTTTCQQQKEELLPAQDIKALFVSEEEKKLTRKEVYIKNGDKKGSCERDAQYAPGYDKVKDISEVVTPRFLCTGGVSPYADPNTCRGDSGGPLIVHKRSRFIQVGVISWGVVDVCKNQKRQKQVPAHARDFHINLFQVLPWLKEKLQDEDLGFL
Target sequence in this assay (Q91132 23-649 partner limits assumed): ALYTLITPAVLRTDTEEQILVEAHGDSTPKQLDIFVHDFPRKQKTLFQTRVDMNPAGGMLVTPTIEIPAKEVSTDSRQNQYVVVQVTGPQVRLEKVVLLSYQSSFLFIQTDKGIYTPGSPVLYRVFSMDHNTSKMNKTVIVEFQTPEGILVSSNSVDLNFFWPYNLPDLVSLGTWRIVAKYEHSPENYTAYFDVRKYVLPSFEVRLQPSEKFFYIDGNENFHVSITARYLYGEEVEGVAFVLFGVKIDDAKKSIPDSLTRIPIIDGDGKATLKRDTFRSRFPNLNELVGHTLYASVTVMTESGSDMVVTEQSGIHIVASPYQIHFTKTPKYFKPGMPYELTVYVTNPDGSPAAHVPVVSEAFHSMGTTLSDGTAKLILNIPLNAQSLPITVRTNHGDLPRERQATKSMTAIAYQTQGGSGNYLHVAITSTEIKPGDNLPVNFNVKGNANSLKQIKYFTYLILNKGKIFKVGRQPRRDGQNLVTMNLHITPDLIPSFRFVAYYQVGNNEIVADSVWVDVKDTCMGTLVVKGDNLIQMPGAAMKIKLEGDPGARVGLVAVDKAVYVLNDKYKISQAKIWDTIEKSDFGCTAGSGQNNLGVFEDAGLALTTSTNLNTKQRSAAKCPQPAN
Target sequence in this assay (Q91132 733-984 partner limits assumed): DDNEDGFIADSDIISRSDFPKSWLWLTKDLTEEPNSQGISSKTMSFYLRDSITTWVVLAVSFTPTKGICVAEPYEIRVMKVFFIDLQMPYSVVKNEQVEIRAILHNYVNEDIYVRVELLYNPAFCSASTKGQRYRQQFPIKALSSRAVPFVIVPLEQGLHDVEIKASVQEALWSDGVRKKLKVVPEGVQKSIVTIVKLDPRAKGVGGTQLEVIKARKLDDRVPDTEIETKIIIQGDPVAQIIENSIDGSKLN
Target sequence in this assay (Q91132 1264-1642 partner limits assumed): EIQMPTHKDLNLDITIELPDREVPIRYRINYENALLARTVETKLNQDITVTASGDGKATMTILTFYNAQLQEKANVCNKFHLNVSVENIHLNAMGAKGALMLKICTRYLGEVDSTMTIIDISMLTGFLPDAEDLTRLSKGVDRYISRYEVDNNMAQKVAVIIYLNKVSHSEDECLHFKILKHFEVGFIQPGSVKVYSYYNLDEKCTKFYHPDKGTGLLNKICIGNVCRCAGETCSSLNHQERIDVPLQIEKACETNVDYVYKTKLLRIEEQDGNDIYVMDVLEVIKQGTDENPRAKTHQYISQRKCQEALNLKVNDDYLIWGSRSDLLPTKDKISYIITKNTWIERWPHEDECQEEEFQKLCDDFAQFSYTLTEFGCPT

What is called IC50 is the concentration that inhibits the measured activity by half. Take `COc1cc(C)c2[nH]ccc2c1C(C)(OC)c1nc2cc(C#N)ccc2[nH]1` (single isomer, unassigned; (-)) [27-B b) (−), (−)-2-(1-methoxy-1-(5-methoxy-7-methyl-1H-indol-4-yl)ethyl)-1H-benzo[d]imidazole-5-carbonitrile]: the IC50 against factor B [1] was 4 nM; on factor B [2], 3 nM.
With `COc1cc(C)c2[nH]ccc2c1C(C)(N)c1nc2cc(C#N)ccc2[nH]1` (single isomer, unassigned; (-)) [41-B b) (−), (−)-2-(1-amino-1-(5-methoxy-7-methyl-1H-indol-4-yl)ethyl)-1H-benzo[d]imidazole-5-carbonitrile], the half-inhibitory concentration (IC50) is 10 nM on factor B [1] and 9 nM at factor B [2].
